According to patent US12503475B2 (Centessa Pharmaceuticals (UK) Limited, priority 2020, dated 2025):
Like-named read-outs stand apart in the source and are kept apart here.

Experiments:
[1] = test system: B6.Cg-Tg(HCRT-MJD)1Stak/J (Atax) mouse model of NT1; assay: Wake promoting efficacy, piezoelectric sleep/wake monitoring, Atax mice; format: in vivo; conditions: dosed 5 h after light onset
Excerpt: (§1) Wake-promoting efficacy of the compounds of the present disclosure may be evaluated in a model (e.g., the B6.Cg-Tg(HCRT-MJD)1Stak/J (Atax) mouse model of NT1 and wild type (WT) colony mates). The model (e.g., mouse model) may be monitored for rapid, non-invasive classification of sleep and wakefulness by unsupervised machine learning on physiologically relevant readouts, such as body movement and breath rate, after dosing of a compound of the present disclosure (e.g., oral dosing).
(§2) Wake-promoting efficacy was evaluated in the B6.Cg-Tg(HCRT-MJD)1Stak/J (Atax) mouse model of NT1 and wild type (WT) colony mates. Mice were monitored in home cages using piezoelectric sensors for rapid, non-invasive classification of sleep and wakefulness by unsupervised machine learning on physiologically relevant readouts, such as body movement and breath rate. Piezoelectric detection is highly correlated with conventional time-intensive electroencephalogram/electromyography measures of sleep/wake states in both WT and NT1 mice. In a counterbalanced design, mice were orally dosed at 5 h after light onset with test articles at 0 (vehicle), 3 and 30 mg/kg.

[2] = test system: wild type (WT) colony mates; assay: Wake promoting efficacy, piezoelectric sleep/wake monitoring, wild type mice; format: in vivo, mouse; conditions: oral dose 30 mg/kg, dosed 5 h after light onset
Excerpt: as §1, §2

[3] = target: T1, human orexin type 2 receptor (hOX2R) (Homo sapiens, UniProt O43614); assay: Measurement of orexin type 2 receptor agonist activity (FLIPR calcium fluorescence); format: cell-based; conditions: CHO cells expressing hOX2R, FLIPR calcium fluorescence; for EC50: read-out: hOx2 pEC50 (converted); for Emax: CHO, read-out: hOx2 Emax (%)
T1 construct: expressed in transfected cells
T1 sequence (O43614 1-444): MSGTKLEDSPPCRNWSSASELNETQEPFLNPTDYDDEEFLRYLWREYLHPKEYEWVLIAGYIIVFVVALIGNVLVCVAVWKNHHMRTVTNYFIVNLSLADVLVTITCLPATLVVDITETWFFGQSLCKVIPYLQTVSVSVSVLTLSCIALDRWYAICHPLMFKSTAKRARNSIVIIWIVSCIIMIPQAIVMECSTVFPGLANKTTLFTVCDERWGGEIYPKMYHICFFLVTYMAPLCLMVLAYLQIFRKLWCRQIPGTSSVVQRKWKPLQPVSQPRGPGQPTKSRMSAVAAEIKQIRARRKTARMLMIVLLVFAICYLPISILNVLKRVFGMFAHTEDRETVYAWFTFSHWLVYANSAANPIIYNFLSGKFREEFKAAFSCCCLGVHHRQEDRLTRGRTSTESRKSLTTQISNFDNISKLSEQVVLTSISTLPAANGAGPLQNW
In short: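 Agonism was read as fluorescence in cells stably expressing human OX2R. E. is the response at 10 μM relative to orexin A as full agonist (100%).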

mouse models = conditions: cited from earlier work
individuals with NT1 = conditions: cited from earlier work

| Compound | Wake % time 1 h post dose (increase from vehicle) ([1]; oral dose 3 mg/kg) [%] | Wake % time 1 h post dose (increase from vehicle) ([1]; oral dose 30 mg/kg) [%] | Wake % time 1 h post dose (increase from vehicle) [2] [%] | EC50 [3] [pM] | Emax [3] [%] | also measured |
| --- | --- | --- | --- | --- | --- | --- |
| CS(=O)(=O)N[C@@H]1[C@H](Cc2cccc(-c3ccccc3)c2F)N(C(=O)[C@H]2CCO2)CC12CC2 (single isomer, unassigned) [Example 21] | 17.5 | 27.9 | 14.4 |  |  |  |
| CCS(=O)(=O)N[C@@H]1[C@H](Cc2cccc(-c3cccc(F)c3)c2F)N(C(=O)[C@H]2CCO2)CC12CC2 [Compound 129, N-((6S,7S)-6-((2,3′-difluoro-[1,1′-biphenyl]-3-yl)methyl)-5-((R)-oxetane-2-carbonyl)-5-azaspiro[2.4]heptan-7-yl)ethanesulfonamide] |  | 25.0 | 19.3 | 79.4 to 1000 | 90 to 100 |  |
| O=C([C@H]1CCO1)N1CC2(CC2)[C@H](NS(=O)(=O)C(F)F)[C@@H]1Cc1cccc(-c2ccccc2)c1F [Compound 144, 1,1-difluoro-N-((6S,7S)-6-((2-fluoro-[1,1′-biphenyl]-3-yl)methyl)-5-((R)-oxetane-2-carbonyl)-5-azaspiro[2.4]heptan-7-yl)methanesulfonamide] | 26.7 | 29.2 | 27.2 | 79.4 to 1000 | 90 to 100 |  |
| O=C([C@H]1CCO1)N1CC2(CC2)[C@H](NS(=O)(=O)CF)[C@@H]1Cc1cc(F)cc(-c2ccccc2)c1F [Compound 145, N-((6S,7S)-6-((2,5-difluoro-[1,1′-biphenyl]-3-yl)methyl)-5-((R)-oxetane-2-carbonyl)-5-azaspiro[2.4]heptan-7-yl)-1-fluoromethanesulfonamide] |  |  |  | 79.4 to 1000 | 90 to 100 | Wake % time 1 h post dose (increase from vehicle) ([1]; oral dose 3 mg/kg, 3 mg/kg): 26.9%; Wake % time 1 h post dose (increase from vehicle) ([1]; oral dose 3 mg/kg, listed as 59, 3 mg/kg): 35.5%; Wake % time 1 h post dose (increase from vehicle) ([1]; oral dose 30 mg/kg, 30 mg/kg): 28.3%; Wake % time 1 h post dose (increase from vehicle) ([1]; oral dose 30 mg/kg, listed as 59, 30 mg/kg): 48.6%; Wake % time 1 h post dose (increase from vehicle) ([2]; 30 mg/kg): 25.8%; Wake % time 1 h post dose (increase from vehicle) ([2]; listed as 59, 30 mg/kg): 21.1% |
| O=C([C@H]1CCO1)N1CC2(CC2)[C@H](NS(=O)(=O)C(F)F)[C@@H]1Cc1cccc(-c2cc(F)cc(F)c2)c1F [Compound 175] | 25.3 | 29 |  | 79.4 to 1000 | 90 to 100 |  |
| COC(=O)N1CCC[C@H](NS(C)(=O)=O)[C@@H]1CO[C@H]1CC[C@@H](c2ccccc2)CC1 [TAK-925] |  |  |  |  |  | wakefulness (mouse models; subcutaneous, WT mice): modestly increased wakefulness; cataplexy (individuals with NT1): trends for decreasing cataplexy; wakefulness (individuals with NT1): substantial levels of increased wakefulness |
| COc1ccc(-c2cccc(C(=O)N(C)C)c2)cc1S(=O)(=O)Nc1cccc(NCCNC(=O)c2ccccc2N(C)C)c1 [YNT-185] |  |  |  |  |  | sleep-onset REM periods and cataplexy-like events (mouse models; NT1 mouse model): decrease sleep-onset REM periods and cataplexy-like events; wakefulness (mouse models; intraperitoneally or ICV, wild type (WT) and orexin ligand-deficient mice): modestly increases wakefulness |
